According to article PMC7582602, “Beyond the Canonical Endocannabinoid System. A Screening of PPAR Ligands as FAAH Inhibitors” (International Journal of Molecular Sciences, 2020):
Like-named read-outs stand apart in the source and are kept apart here.

Key:
FAAH Human recombinant = target: T1, FAAH Human recombinant (Homo sapiens, UniProt O00519); experiment: FAAH inhibition assay (fluorometric, AMC-AA substrate); format: biochemical; details: for IC50: human recombinant FAAH, mean ± SEM, i: inactive; for inhibition at 100 µM: read-out: FAAH % inhibition @ 100 μM
T1 construct: purchased Cayman Chemical
T1 sequence (O00519 1-579): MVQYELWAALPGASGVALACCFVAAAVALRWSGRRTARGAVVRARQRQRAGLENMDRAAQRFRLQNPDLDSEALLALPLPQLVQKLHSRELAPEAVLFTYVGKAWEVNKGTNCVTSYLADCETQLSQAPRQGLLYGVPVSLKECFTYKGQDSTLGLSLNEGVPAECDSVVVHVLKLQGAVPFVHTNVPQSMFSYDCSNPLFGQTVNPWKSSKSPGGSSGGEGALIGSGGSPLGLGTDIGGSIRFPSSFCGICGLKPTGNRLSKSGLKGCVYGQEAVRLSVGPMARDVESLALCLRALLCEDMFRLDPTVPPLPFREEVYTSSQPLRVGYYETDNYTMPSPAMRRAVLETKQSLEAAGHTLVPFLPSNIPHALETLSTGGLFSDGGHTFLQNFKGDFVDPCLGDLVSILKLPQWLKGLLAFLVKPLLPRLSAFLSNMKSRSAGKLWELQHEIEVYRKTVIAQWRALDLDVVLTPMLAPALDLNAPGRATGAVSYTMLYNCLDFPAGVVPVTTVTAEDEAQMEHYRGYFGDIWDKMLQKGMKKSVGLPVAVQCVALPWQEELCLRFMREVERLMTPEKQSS
Experimental: Briefly, 96-well black flat-bottom microtiter NBS plates (COSTAR flat black) were utilized to perform the assays (in triplicate).
Control wells lacking the inhibitor and blank wells lacking both inhibitor and enzyme were used to calculate percent inhibition for each tested compound. IC50 values were calculated via GraphPad Prism 5.0 (GraphPad Software, La Jolla, CA, USA) and are reported as mean ± SEM of at least two independent measurements performed in triplicate.

human PPARγ [1] = target: T2, human PPARγ (Homo sapiens, UniProt P37231); details: previously reported compound; cited from earlier work
T2 sequence (P37231 238-503 limits assumed): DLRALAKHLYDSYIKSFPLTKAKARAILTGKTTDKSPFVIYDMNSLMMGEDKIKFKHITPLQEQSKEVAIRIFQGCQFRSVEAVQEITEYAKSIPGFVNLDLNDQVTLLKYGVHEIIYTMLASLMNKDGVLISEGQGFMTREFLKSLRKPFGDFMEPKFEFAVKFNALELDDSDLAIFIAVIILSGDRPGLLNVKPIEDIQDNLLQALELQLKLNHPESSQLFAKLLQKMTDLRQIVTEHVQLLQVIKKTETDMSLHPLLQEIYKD

human PPARα [2] = target: T3, human PPARα (Homo sapiens, UniProt Q07869); details: previously reported compound; cited from earlier work
T3 sequence (Q07869 239-466 limits assumed): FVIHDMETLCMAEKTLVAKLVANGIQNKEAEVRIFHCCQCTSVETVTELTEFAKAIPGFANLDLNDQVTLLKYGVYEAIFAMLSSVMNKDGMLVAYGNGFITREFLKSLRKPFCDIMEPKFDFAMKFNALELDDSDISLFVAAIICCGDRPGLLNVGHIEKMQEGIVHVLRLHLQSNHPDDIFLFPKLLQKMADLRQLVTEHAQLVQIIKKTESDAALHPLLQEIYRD

human PPARα [3] = target: T3, human PPARα; experiment: GAL4-PPARα-LBD transactivation (luciferase) assay in HepG2 cells; details: for Emax: HepG2, read-out: PPARα Emax
human PPARγ [4] = target: T2, human PPARγ; experiment: GAL4-PPARγ-LBD transactivation (luciferase) assay in HepG2 cells; details: for Emax: HepG2, read-out: PPARγ Emax
LogD = format: physicochemical; details: called measured LogD values
FAAH = system: FAAH; design: method as in PMID 23240907; details: literature value for carprofen; cited from earlier work

IC50 (FAAH Human recombinant) [µM] | inhibition at 100 µM (FAAH Human recombinant) [%] | Structure (SMILES) | PPARγ Emax (human PPARγ [1]) | PPARα Emax (human PPARα [2]) | other results
> 100 | – | O=C(/C=C/c1ccccc1)O[C@@H](Cc1ccccc1)C(=O)O [(S)-28] | – | – | Emax (human PPARα [3]): 34 ± 8%; Emax (human PPARγ [4]): 9 ± 6%
12.6 ± 3.1 | – | O=C(C=Cc1ccc(O)c(O)c1)N[C@@H](Cc1ccccc1)C(=O)O [Compound 33] | – | – | melting point: 198 to 199 °C
> 100 | – | O=C(O)C(Cc1ccccc1)Oc1ccc(Cc2ccccc2)cc1 (centres unmarked) [Compound 14] | 42 ± 1% | 115 ± 27% | activity on FAAH (in words) (FAAH Human recombinant): completely inactive; logD (LogD): 2.62
26.1 ± 11.4 | – | Oc1ccc(/C=C/c2cc(O)cc(O)c2)cc1 [Compound 12, resveratrol] | – | – | –
> 100 | 32.2 | CC(Oc1ccc(CCc2ccccc2)cc1)C(=O)O (racemic) [Compound 16] | – | – | EC50 (human PPARα [3]): 17.6 ± 3 µM; Emax (human PPARα [3]): 116 ± 1%; EC50 (human PPARγ [4]): 24 ± 6 µM; Emax (human PPARγ [4]): 18 ± 7%; melting point: 106 to 107 °C
> 100 | 30 | CC(Oc1ccc(Cc2ccccc2)cc1)C(=O)O (racemic) [Compound 13, (R,S)-2-(4-benzyl)-phenoxypropanoic acid] | – | – | EC50 (human PPARα [3]): 4.6 ± 1.8 µM; Emax (human PPARα [3]): 116 ± 1%; melting point: 102 to 104 °C
> 100 | 34 | O=C(Cc1ccccc1)c1ccc(O[C@@H](Cc2ccccc2)C(=O)O)cc1 [Compound 21] | 40 ± 2% | 106 ± 1% | EC50 (human PPARγ [1]): 9.1 ± 0.9 µM; EC50 (human PPARα [2]): 1.8 ± 1 µM

Continued, compound first:

Structure (SMILES) | IC50 (FAAH Human recombinant) [µM] | inhibition at 100 µM (FAAH Human recombinant) [%] | PPARγ Emax (human PPARγ [1]) | PPARα Emax (human PPARα [2]) | other results
CCCc1c(OCCCOc2ccc(OCC(=O)O)cc2)ccc(C(C)=O)c1O [Compound 3, L165,041, reference compound] | > 100 | 40 | – | – | activity on FAAH (in words) (FAAH Human recombinant): little to no activity
O=C(Oc1ccc([N+](=O)[O-])cc1)N1CCN(Cc2cccc(Oc3ccccc3)c2)CC1 [JZL195, reference compound] | 0.019 ± 0.003 | – | – | – | –
CC(Oc1ccc(Cc2ccc(OCc3coc(-c4ccccc4)n3)cc2)cc1)C(=O)O (centres unmarked) [Compound 17] | > 100 | – | 26 ± 3 | 47 ± 13 | –
O=C(O)C(Cc1ccccc1)Oc1ccc(/C=C\c2ccccc2)cc1 (centres unmarked) [Compound 19] | > 100 | 30.5 | – | – | –
CCCCCCCN(CCc1ccc(O[C@@H](C)C(=O)O)cc1)c1nc2ccccc2o1 [Compound 25] | ~100 | 45.1 | 32 ± 5% | 78 ± 4% | –
COc1ccc(C=CC(=O)N[C@@H](Cc2ccc(O)cc2)C(=O)O)cc1OC [Compound 35, (S)-2-(3-(3,4-dimethoxyphenyl)acrylamido)-3-(4-hydroxyphenyl)propanoic acid] | – | – | – | – | melting point: 105 to 108.5 °C
O=C(O)C(Cc1ccccc1)Oc1ccc(NCc2ccccc2)cc1 (centres unmarked) [Compound 20] | > 100 | 39.2 | 27 ± 6% | 78 ± 4% | –
CC(C(=O)O)c1ccc2c(c1)[nH]c1ccc(Cl)cc12 (centres unmarked) [carprofen] | – | – | – | – | IC50 (FAAH): 79 ± 20 µM
CCCCCCCN(CCc1ccc(OCC(=O)O)cc1)c1nc2ccccc2o1 [Compound 8] | 30.5 ± 12.6 | – | 37 ± 11% | 87 ± 7% | EC50 (human PPARγ [1]): 0.83 ± 0.75 µM; EC50 (human PPARα [2]): 0.12 ± 0.16 µM
Cc1cccc(Nc2cc(Cl)nc(SCC(=O)O)n2)c1C [Compound 2, Wy 14,643, reference compound] | > 100 | – | – | – | activity on FAAH (in words) (FAAH Human recombinant): little to no activity
O=C(/C=C/c1ccc(O)c(O)c1)O[C@H](Cc1ccc(O)c(O)c1)C(=O)O [Compound 4, Rosmarinic acid] | ~100 | 62 | – | – | activity on PPARα (in words) (human PPARα [3]): did not find any activity; activity on PPARγ (in words) (human PPARγ [4]): did not find any activity
O=C(O)COc1ccc(CCc2ccccc2)cc1 [Compound 15, 4-phenethyl-phenoxyacetic acid] | ~100 | 63 | – | – | melting point: 130 to 131 °C
O=C(O)C(Cc1ccccc1)Oc1ccc(/C=C/c2ccccc2)cc1 (centres unmarked) [Compound 18] | 24 ± 2.5 | – | – | – | –
CCCCCCCN(CCc1ccc(O[C@H](C)C(=O)O)cc1)c1nc2ccccc2o1 [Compound 26] | > 100 | 35 | 59 ± 2% | 93 ± 6% | –
O=C(O)COc1ccc(Cc2ccccc2)cc1 [Compound 5, 4-benzyl-phenoxyacetic acid] | 40.2 ± 17.7 | – | – | – | EC50 (human PPARα [3]): 24 ± 5 µM; Emax (human PPARα [3]): 34 ± 8%; EC50 (human PPARγ [4]): 33 ± 23 µM; Emax (human PPARγ [4]): 9 ± 6%; melting point: 117 to 118 °C; logD (LogD): 0.27
